Some test systems named below: MDA-N; M19-MEL melanoma; HOP-18 NSCLC; LXFL 529 NSCLC; DMS 114 small cell lung; KM20L2 colon; DLD-1 colon; DMS 273 small cell lung; RXF-631 renal; SN12K1 renal.
Holding throughout (assay): inhibition of tumour cell growth, NCI panel, 48 h

This is an account of results in PubChem BioAssay (NCI).

Each structure is given as a SMILES string. Values joined by “and” are separate entries in the source; they are usually repeats but may differ in a detail not shown here. Equal entries are not always repeated.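 Five concentrations, 48 hours, 96-well plates. GI50 marks 50% less growth. TGI: concentration producing complete growth inhibition.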

Turning to `O=C(Nc1ccc2[nH]c(C(=O)N3CC(CCl)c4c3cc([N+](=O)[O-])c3ccccc43)cc2c1)c1cc2ccccc2o1` (centres undefined), in the assay with MDA-N, the GI50 is more than 1100 µM and the TGI was more than 1100 µM.

In the assay with MDA-N, `CC(=O)C1COC(O)C1C` (centres undefined) returned a TGI of 43.5 µM.

In the case of `COc1ccc(-c2nnc(-c3c(C)n(C)n(-c4ccccc4)c3=O)o2)cc1`, the TGI in the assay with M19-MEL melanoma, in the assay with HOP-18 NSCLC, in the assay with LXFL 529 NSCLC, in the assay on DMS 114 small cell lung, with KM20L2 colon and in the assay on DLD-1 colon was more than 100 µM throughout. In addition, in the assay with DMS 273 small cell lung, the TGI was more than 100 µM.

Turning to `CCn1c2ccc(C(=O)CCCN(C)C)cc2c2cc(C(=O)CCCN(C)C)ccc21`, the TGI in the assay on MDA-N was found to be 6.8 µM.

As to `CCCCN=C(NC#N)N(Cc1ccccc1)Cc1ccccc1`, the TGI in the assay on M19-MEL melanoma is 35.8 µM; in the assay on HOP-18 NSCLC it was more than 100 µM; in the assay on LXFL 529 NSCLC it was 32.8 µM; with KM20L2 colon, 52.4 µM; in the assay on DLD-1 colon, 36.4 µM; in the assay on DMS 273 small cell lung, 37.1 µM.

In the case of `COc1cc([C@H]2c3cc4c(cc3[C@H](NCc3ccc([N+](=O)[O-])cc3)C3COC(=O)[C@H]32)OCO4)cc(OC)c1O` (some centres undefined), the TGI in the assay with M19-MEL melanoma was more than 100 µM; in the assay on LXFL 529 NSCLC it was more than 76 µM; with DMS 114 small cell lung, more than 25.3 µM; with KM20L2 colon it was 14.4 µM; in the assay on DLD-1 colon, more than 43.5 µM; in the assay on DMS 273 small cell lung, more than 100 µM.

For the molecule `CCC(=O)C(C)C(=O)C(=O)C(=O)OC` (centres undefined), the TGI in the assay on M19-MEL melanoma, in the assay with HOP-18 NSCLC, in the assay on LXFL 529 NSCLC, with DMS 114 small cell lung, with KM20L2 colon and with DLD-1 colon was more than 100 µM each time. The TGI with DMS 273 small cell lung and in the assay with RXF-631 renal was more than 100 µM throughout.

In the case of `COC(=O)[C@@]1(O)CC(C)C=C1C=O` (some centres undefined), the TGI is more than 100 µM with M19-MEL melanoma; more than 100 µM in the assay on HOP-18 NSCLC; more than 100 µM in the assay on LXFL 529 NSCLC; 89.7 µM in the assay on DMS 114 small cell lung; more than 100 µM in the assay on KM20L2 colon; more than 100 µM with DLD-1 colon. Moreover, the TGI with DMS 273 small cell lung stood at 34.6 µM.

As to `CCO/C=C1\N=C(C(Cl)c2ccccc2)OC1=O` (centres undefined), the TGI with M19-MEL melanoma, with LXFL 529 NSCLC, with DMS 114 small cell lung, in the assay on KM20L2 colon, in the assay with DLD-1 colon and in the assay with DMS 273 small cell lung was more than 100 µM throughout.

Turning to `CC(C)[NH-].CC(C)[NH-].O.O.[Cl][Pt+2][Cl]`, the GI50 was 21.3 µM in the assay on M19-MEL melanoma; 60.5 µM in the assay with HOP-18 NSCLC; 10.9 µM with DMS 114 small cell lung; 17.4 µM with MDA-N; 31.1 µM with SN12K1 renal; 15.2 µM in the assay on KM20L2 colon. Moreover, the GI50 in the assay with DLD-1 colon was 45.1 µM. The TGI in the assay with M19-MEL melanoma stood at 77.1 µM; in the assay on HOP-18 NSCLC, 337 µM; in the assay with DMS 114 small cell lung, 44.1 µM; with MDA-N, 106 µM; in the assay on SN12K1 renal, 150 µM; in the assay with KM20L2 colon, 141 µM. Further, in the assay on DLD-1 colon, the TGI came out at 238 µM.

Consider `Fc1cccc(CSc2ncnc3c2ncn3C2CCCS2)c1` (centres undefined), for which, in the assay on MDA-N, the TGI was determined as 56.8 µM.

On to `NC(=S)N/N=C/c1ccc(O)cn1`, for which the GI50 was 15.4 µM and 9.44 µM with M19-MEL melanoma; 21 µM in the assay with HOP-18 NSCLC; 3.78 µM and 1.04 µM and 2.04 µM in the assay on DMS 114 small cell lung; 31.7 µM and 19.7 µM and 10.6 µM with KM20L2 colon; 39.6 µM and 31 µM with DLD-1 colon; 8.83 µM and 5.35 µM in the assay on DMS 273 small cell lung. Moreover, the TGI in the assay on HOP-18 NSCLC is 134 µM and 974 µM; in the assay on MDA-N, more than 1180 µM; in the assay with SN12K1 renal it was more than 1500 µM; in the assay on KM20L2 colon, more than 1500 µM; with DLD-1 colon it was more than 1500 µM; with DMS 273 small cell lung it was 31.1 µM and 37 µM and 16.7 µM.

As for `CC(=O)OC1CC[C@@]2(C)C(CC[C@]3(C)C2CC=C2[C@@H]4CC(C)(C)CCC4(C)CCC23C)[C@@]1(C)C(=O)O` (some centres undefined), the TGI was 54 µM in the assay with M19-MEL melanoma; 43.7 µM with HOP-18 NSCLC; 32.9 µM in the assay with LXFL 529 NSCLC; 40.2 µM in the assay with DMS 114 small cell lung; 64.8 µM in the assay on MDA-N; 36.7 µM in the assay on KM20L2 colon. Moreover, the figures for the TGI in the assay with DLD-1 colon, with DMS 273 small cell lung and in the assay on RXF-631 renal were 29.3 µM, 55.5 µM and 44.7 µM, respectively.

Regarding `CN(C(=O)C12C3(C(=O)C(C)(C)C)C4C5(C#N)C3C1(C(=O)C(C)(C)C)C5C42C(=O)C(C)(C)C)C(C)(C)C` (centres undefined), the TGI in the assay with M19-MEL melanoma, with LXFL 529 NSCLC, in the assay with DMS 114 small cell lung, in the assay on KM20L2 colon, with DLD-1 colon and in the assay on DMS 273 small cell lung was more than 50 µM each time. The same molecule yielded a TGI in the assay on RXF-631 renal of more than 50 µM.

In the case of `COc1ccc2nc(NCN3C(=O)c4ccccc4C3=O)sc2c1`, the TGI in the assay on MDA-N is more than 100 µM.

Regarding `CC(C)(c1ccc(Oc2ccc(C#N)c(C#N)c2)cc1)c1ccc(Oc2ccc(C#N)c(C#N)c2)cc1`, the GI50 in the assay with M19-MEL melanoma, in the assay with LXFL 529 NSCLC, with DMS 114 small cell lung, with KM20L2 colon, in the assay on DLD-1 colon and in the assay with RXF-631 renal was more than 100 µM in each case. In addition, the TGI in the assay with M19-MEL melanoma, in the assay on LXFL 529 NSCLC, in the assay with DMS 114 small cell lung, in the assay on KM20L2 colon, in the assay on DLD-1 colon and with RXF-631 renal was more than 100 µM each time.

Take `CC(=O)OC(C)(C)/C=C/C(=O)[C@](C)(O)[C@H]1[C@H](O)C[C@@]2(C)[C@@H]3CC=C4[C@@H](C[C@H](O)C(=O)C4(C)C)[C@]3(CO)C(=O)C[C@]12C`: the GI50 in the assay on M19-MEL melanoma is 0.298 µM; with HOP-18 NSCLC it was 0.216 µM; with LXFL 529 NSCLC it was 0.09 µM; with DMS 114 small cell lung, 0.248 µM; in the assay on DLD-1 colon, 0.216 µM; with DMS 273 small cell lung it was 0.324 µM. In addition, the TGI with M19-MEL melanoma is 29.9 µM; in the assay on HOP-18 NSCLC, 0.646 µM and 1.32 µM; in the assay on LXFL 529 NSCLC it was 6.62 µM; in the assay with DMS 114 small cell lung, 15.3 µM; in the assay on DLD-1 colon, 15 µM; in the assay with DMS 273 small cell lung, 0.771 µM.

As for `NC(=O)C(=Cc1ccc(CP(=O)(O)O)cc1)C(N)=O`, the TGI in the assay with M19-MEL melanoma, in the assay on HOP-18 NSCLC, in the assay on LXFL 529 NSCLC, in the assay with DMS 114 small cell lung, in the assay with KM20L2 colon and in the assay with DLD-1 colon was more than 100 µM each time. This molecule also displayed a TGI in the assay on DMS 273 small cell lung of more than 100 µM.
